According to US20110124620A1, “SPHINGOSINE 1 PHOSPHATE RECEPTOR MODUATORS AND THEIR USE TO TREAT MUSCLE INFLAMMATION” (priority 2008, published 2011):

Test system: Primary Human Myotubes
Assay: Effect on cytokine-induced atrophy of primary human myotubes (myotube diameter)
Assay type: cell-based
Description: In Vitro: Effect on Cytokine-Induced Atrophy of Primary Human Myotubes.
Human skeletal muscle (skMC) cells are obtained from Cambrex (#CC-2561). For experiments skMC stocks are thawed and maintained in SkBM (Lonza CC-3161) containing 20% FCS and 0.1% gentamycin at 37° C., 5% CO2. After 4-5 days cells are seeded for experiments onto six-well plates coated with matrigel (450,000/well) and grown at 37° C., 5% CO2 for one day. Cells are then washed 3× with SkBM and differentiated into myotubes with SkBM containing 1 μM SB431542 (ALK4/5 inhibitor; Sigma #S4317) for 4 days (SB431542 is removed 24 h prior cell treatment). Myotubes are then treated with test compound either in the absence or in the presence of a cytokine cocktail (TNFα 10 ng/ml, IL-1β 2 ng/ml, IFNγ 10 ng/ml) for 24 h in SkBM plus 0.1% gentamycin, washed once with CSB buffer: 80 mM pipes, […], 1 mM MgCl 6H20 and 4% PEG35000 (Fluka #94646) and fixed with 4% paraformaldehyde (Electron Microscopy Sciences #15714) in CSB for 15 min at room temperature. […] Average diameters of at least 40 myotubes are measured for each condition at three points separated by 50 μm along the length of the myotube.

For `CCc1cc(C(C)=NOCc2ccc(C3CCCCC3)c(C(F)(F)F)c2)ccc1CN1CC(C(=O)O)C1` [Compound A, 1-{4-[1-(4-cyclohexyl-3-trifluoromethyl-benzyloxyimino)-ethyl]-2-ethyl-benzyl}-azetidine-3-carboxylic acid], the “effect on cytokine-induced atrophy (myotube diameter)” value (Compound A 1 nM, cytokine cocktail (TNFα 10 ng/ml, IL-1β 2 ng/ml, IFNγ 10 ng/ml) for 24 h, cocktail alone gives approx. 20% decrease in myotube diameter vs vehicle control) was “block almost completely the cytokine-induced atrophy” and the “effect on cytokine-induced atrophy (myotube diameter)” value (higher concentrations of Compound A (above 1 nM), cytokine cocktail for 24 h) was “exert the same effect”.
